The target in one test is T1, LZK (Homo sapiens, UniProt O43283).
T1 construct: 10 nM LZK, catalytic domain, Carna Biosiences in assay buffer; purchased Carna Biosciences ('Carna Biosiences' [sic])
T1 sequence (O43283 168-409 limits assumed): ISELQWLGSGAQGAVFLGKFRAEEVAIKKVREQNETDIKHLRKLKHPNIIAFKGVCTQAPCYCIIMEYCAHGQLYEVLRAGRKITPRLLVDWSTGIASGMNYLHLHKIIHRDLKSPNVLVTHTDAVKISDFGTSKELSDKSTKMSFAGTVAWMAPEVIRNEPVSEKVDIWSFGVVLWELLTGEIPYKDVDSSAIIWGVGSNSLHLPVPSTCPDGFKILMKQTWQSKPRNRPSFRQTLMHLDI
The test can be described thus: LZK biochemical assay (TR-FRET, MKK7 phosphorylation). The settings on record: LZK catalytic domain, MKK7 substrate, 15 μM ATP. How it is done: (§1) LZK assay is a biochemical assay format designed to screen for inhibitors of LZK. Enzymatic activity of LZK is measured by monitoring phosphorylation of the physiological substrate MKK7 (MAP2K7, Dual specificity mitogen-activated protein kinase kinase 7). Phosphorylation is detected by a TR-FRET system whereby His-tagged MKK7 is labeled by a XL665-labeled anti-His antibody (FRET acceptor, emission 665 nm). LZK phosphorylates MKK7 at T275/S277 which is detected by an Eu-labeled anti-phospho-MKK7 (T275/S277) antibody (FRET donor, excitation 340 nm). Phosphorylation of MKK7 results in an increased TR-FRET signal (Ratio XL665-channel/Eu-channel) and inhibition of enzymatic activity of LZK decreases the TR-FRET signal.
All indicated concentrations final concentrations.
(§2) Detection buffer: 25 mM Tris/HCl pH 7.5, 100 mM EDTA, 100 mM NaCl, 200 mM KF, 0.01% Tween 20, 1:500 Smart Block.
(In TR-FRET formats the signal depends on donor and acceptor labels being close together.)

For another test, the target named is T2, DLK (Homo sapiens, UniProt Q12852).
T2 construct: 10 nM DLK, catalytic domain, Carna Biosiences; purchased Carna Biosciences ('Carna Biosiences' [sic])
T2 sequence (Q12852 125-366 limits assumed): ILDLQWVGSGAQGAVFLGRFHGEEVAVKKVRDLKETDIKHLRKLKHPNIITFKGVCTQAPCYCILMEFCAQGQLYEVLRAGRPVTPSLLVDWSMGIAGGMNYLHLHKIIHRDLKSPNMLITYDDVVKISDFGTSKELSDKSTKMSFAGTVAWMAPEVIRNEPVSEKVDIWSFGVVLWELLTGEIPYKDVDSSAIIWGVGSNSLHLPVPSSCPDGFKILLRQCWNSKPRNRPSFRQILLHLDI
The test can be described thus: DLK biochemical assay (TR-FRET, MKK7 phosphorylation). The settings on record: DLK catalytic domain, MKK7 substrate, 60 μM ATP. The procedure: as §1, with “DLK assay” for “LZK assay”, “of DLK.” for “of LZK.”, “of DLK” for “of LZK”, “nm). DLK” for “nm). LZK”, “at T275/S277,” for “at T275/S277”
All indicated concentrations are final concentrations.
as §2

The IC50 is the concentration that inhibits the measured activity by half. Low readings indicate greater potency, high ones weaker potency. With `CCC(c1ccc(C(F)F)nc1)n1cc(-c2cc(C(=O)N[C@@H](C)CC)n3nc(N)nc3c2)cn1` (mixture of isomers) [Example I-92, 2-Amino-N-[(2S)-butan-2-yl]-7-(1-{1-[6-(difluoromethyl)pyridin-3-yl]propyl}-1H-pyrazol-4-yl)[1,2,4]triazolo[1,5-a]pyridine-5-carboxamide], the results for the IC50 against LZK and on DLK were 3.9 nM and 2 nM, respectively.
As for `CC[C@H](C)NC(=O)c1cc(-c2cnn(C(c3ccc(C(F)F)nc3)C(C)C)c2)cc2nc(N)nn12` (mixture of isomers) [Example I-95, 2-Amino-N-[(2S)-butan-2-yl]-7-(1-{1-[6-(difluoromethyl)pyridin-3-yl]-2-methylpropyl}-1H-pyrazol-4-yl)[1,2,4]triazolo[1,5-a]pyridine-5-carboxamide], the figures for the 50% inhibitory concentration (IC50) on LZK and on DLK were 4.7 nM and 1.5 nM, respectively.
Consider `CC[C@H](C)NC(=O)c1cc(-c2cnn(C(c3ccc(C(F)F)nc3)C3CC3)c2)cc2nc(N)nn12` (mixture of isomers) [Example I-98, 2-Amino-N-[(2S)-butan-2-yl]-7-(1-{cyclopropyl[6-(difluoromethyl)pyridin-3-yl]methyl}-1H-pyrazol-4-yl)[1,2,4]triazolo[1,5-a]pyridine-5-carboxamide], for which the 50% inhibitory concentration (IC50) came out at 7.3 nM on LZK and 8.6 nM against DLK.
Turning to `CCC(c1ccc(C(F)(F)F)nc1)n1cc(-c2cc(C(=O)N[C@@H](C)CC)n3nc(N)nc3c2)cn1` (mixture of isomers) [Example I-101, 2-Amino-N-[(2S)-butan-2-yl]-7-(1-{1-[6-(trifluoromethyl)pyridin-3-yl]propyl}-1H-pyrazol-4-yl)[1,2,4]triazolo[1,5-a]pyridine-5-carboxamide], the IC50 came out at 2.8 nM on LZK and 1.2 nM against DLK.
As for `CC[C@H](C)NC(=O)c1cc(-c2cnn(C(c3ccc(C(F)(F)F)nc3)C(C)C)c2)cc2nc(N)nn12` (mixture of isomers) [Example I-104, 2-Amino-N-[(2S)-butan-2-yl]-7-(1-{2-methyl-1-[6-(trifluoromethyl)pyridin-3-yl]propyl}-1H-pyrazol-4-yl)[1,2,4]triazolo[1,5-a]pyridine-5-carboxamide], the half-inhibitory concentration (IC50) came to 2.9 nM at LZK and 1.3 nM against DLK.
In the case of `CC[C@H](C)NC(=O)c1cc(-c2cnn(C(c3ccc(C(F)(F)F)nc3)C3CC3)c2)cc2nc(N)nn12` (mixture of isomers) [Example I-107, 2-Amino-N-[(2S)-butan-2-yl]-7-(1-{cyclopropyl[6-(trifluoromethyl)pyridin-3-yl]methyl}-1H-pyrazol-4-yl)[1,2,4]triazolo[1,5-a]pyridine-5-carboxamide], the IC50 was 3.5 nM against LZK and 1.7 nM against DLK.
For `CC[C@H](C)NC(=O)c1cc(-c2cnn(C(c3ccc(C(F)(F)F)nc3)C3CCOCC3)c2)cc2nc(N)nn12` (mixture of isomers) [Example I-110, 2-Amino-N-[(2S)-butan-2-yl]-7-(1-{tetrahydro-2H-pyran-4-yl[6-(trifluoromethyl)pyridin-3-yl]methyl}-1H-pyrazol-4-yl)[1,2,4]triazolo[1,5-a]pyridine-5-carboxamide] the same measures were 2.3 nM and 1.6 nM.
In the case of `CCC(c1ccc(OCC(F)(F)F)nc1)n1cc(-c2cc(C(=O)N[C@@H](C)CC)n3nc(N)nc3c2)cn1` (mixture of isomers) [Example I-113, 2-Amino-N-[(2S)-butan-2-yl]-7-(1-{1-[6-(2,2,2-trifluoroethoxy)pyridin-3-yl]propyl}-1H-pyrazol-4-yl)[1,2,4]triazolo[1,5-a]pyridine-5-carboxamide], the values for the half-inhibitory concentration (IC50) against LZK and against DLK were 12 nM and 5.4 nM, respectively.
For `CC[C@H](C)NC(=O)c1cc(-c2cnn(C(c3ccc(OCC(F)(F)F)nc3)C(C)C)c2)cc2nc(N)nn12` (mixture of isomers) [Example I-116, 2-Amino-N-[(2S)-butan-2-yl]-7-(1-{2-methyl-1-[6-(2,2,2-trifluoroethoxy)pyridin-3-yl]propyl}-1H-pyrazol-4-yl)[1,2,4]triazolo[1,5-a]pyridine-5-carboxamide] the same measures were 68 nM and 8.2 nM.
Consider `CC[C@H](C)NC(=O)c1cc(-c2cnn(C(c3ccc(OCC(F)(F)F)nc3)C3CC3)c2)cc2nc(N)nn12` (mixture of isomers) [Example I-119, 2-Amino-N-[(2S)-butan-2-yl]-7-(1-{cyclopropyl[6-(2,2,2-trifluoroethoxy)pyridin-3-yl]methyl}-1H-pyrazol-4-yl)[1,2,4]triazolo[1,5-a]pyridine-5-carboxamide], for which the IC50 on LZK is 36 nM; on DLK, 6.5 nM.
The matching figures for `CCC(c1ccnc(C(F)(F)F)c1)n1cc(-c2cc(C(=O)N[C@@H](C)CC)n3nc(N)nc3c2)cn1` (mixture of isomers) [Example I-122, 2-Amino-N-[(2S)-butan-2-yl]-7-(1-{1-[2-(trifluoromethyl)pyridin-4-yl]propyl}-1H-pyrazol-4-yl)[1,2,4]triazolo[1,5-a]pyridine-5-carboxamide]: 7.4 nM and 3.5 nM.
Consider `CC[C@H](C)NC(=O)c1cc(-c2cnn(C(c3c(F)cncc3F)C(C)C)c2)cc2nc(N)nn12` (mixture of isomers) [Example I-123, 2-Amino-N-[(2S)-butan-2-yl]-7-{1-[1-(3,5-difluoropyridin-4-yl)-2-methylpropyl]-1H-pyrazol-4-yl}[1,2,4]triazolo[1,5-a]pyridine-5-carboxamide], for which the IC50 is 170 nM at LZK and 5.9 nM on DLK.
With `CC[C@H](C)NC(=O)c1cc(-c2cnn(C(c3ccnc(OC)c3)C(C)C)c2)cc2nc(N)nn12` (mixture of isomers) [Example I-126, 2-Amino-N-[(2S)-butan-2-yl]-7-{1-[1-(2-methoxypyridin-4-yl)-2-methylpropyl]-1H-pyrazol-4-yl}[1,2,4]triazolo[1,5-a]pyridine-5-carboxamide], the IC50 is 1.3 nM on LZK and 0.2 nM on DLK.
The matching figures for `CCC(c1ccc(Cl)s1)n1cc(-c2cc(C(=O)N[C@@H](C)CC)c3nc(N)nn3c2)cn1` (mixture of isomers) [Example I-129, 2-Amino-N-[(2S)-butan-2-yl]-6-{1-[1-(5-chloro-2-thienyl)propyl]-1H-pyrazol-4-yl}[1,2,4]triazolo[1,5-a]pyridine-8-carboxamide]: 39 nM and 3.4 nM.
The matching figures for `C[C@@H](CF)NC(=O)c1cc(-c2cnn(C3CCOc4ccccc43)c2)cn2nc(N)nc12` (mixture of isomers) [Example I-143, 2-Amino-6-{1-[3,4-dihydro-2H-1-benzopyran-4-yl]-1H-pyrazol-4-yl}-N-[1-fluoropropan-2-yl][1,2,4]triazolo[1,5-a]pyridine-8-carboxamide]: 15 nM and 33 nM.
The matching figures for `CC(CF)NC(=O)c1cc(-c2cnn(C3CCOc4ccccc43)c2)cn2nc(N)nc12` (mixture of isomers) [Example I-144, 2-Amino-6-{1-(3,4-dihydro-2H-1-benzopyran-4-yl)-1H-pyrazol-4-yl}-N-[1-fluoropropan-2-yl][1,2,4]triazolo[1,5-a]pyridine-8-carboxamide]: 79 nM and 84 nM.
`CCC(c1ccc(C(F)(F)F)nc1)n1cc(-c2cc(C(=O)NC(C)CF)c3nc(N)nn3c2)cn1` (mixture of isomers) [Example I-147]: the figures for the IC50 against LZK and on DLK were 25 nM and 3.9 nM, respectively.
Consider `CC[C@@H](c1ccc(F)cc1)n1cc(-c2cc(C(=O)NC(C)CF)n3nc(N)nc3c2)cn1` (mixture of isomers) [Example I-148, 2-Amino-7-{1-[(1S)-1-(4-fluorophenyl)propyl]-1H-pyrazol-4-yl}-N-(1-fluoropropan-2-yl)[1,2,4]triazolo[1,5-a]pyridine-5-carboxamide], for which the IC50 at LZK came out at 32 nM; at DLK, 1.6 nM.

(Values after US20230086702A1, “SUBSTITUTED 2-AMINO-PYRAZOLYL-[1,2,4]TRIAZOLO[1,5A]PYRIDINE DERIVATIVES AND USE THEREOF” (The Johns Hopkins University, priority 2019, published 2023).)
